What was measured:
[1] = test system: BCR-ABL mutant B-cell ALL; format: in vivo, mice; conditions: 13 models, n=88 animals
[2] = test system: B-cell ALL leukemic cells in bone marrow; experiment: Bone marrow involvement at MRD in B-cell ALL PDX mice after mono- or combination therapy; format: in vivo; conditions: treated for 28 days
Procedure: Mice are treated with ponatinib alone, ponatinib in combination with QNZ (a TNF-alpha inhibitor), ponatinib in combination with fostamatinib (a proximal pre-BCR pathway inhibitor), ponatinib in combination with ibrutinib (a proximal pre-BCR pathway inhibitor), ponatinib in combination with duvelisib (a distal pre-BCR inhibitor), or ponatinib in combination with losmapimod (a p38 MAPK inhibitor) for 28 days. Bone marrow aspirates are obtained, and leukemic cells are isolated using conventional Ficoll centrifugation and FACS sorting methods. The leukemic cells are counted as bone marrow involvement at MRD, and it is compared to that before treatment.

O=C(Nc1ccc(OC(F)(F)Cl)cc1)c1cnc(N2CC[C@@H](O)C2)c(-c2cc[nH]n2)c1 [ABL001, asciminib]
Event free survival (remission/relapse, in words) [1]: significant earlier relapse

Cc1ccc(C(=O)Nc2ccc(CN3CCN(C)CC3)c(C(F)(F)F)c2)cc1C#Cc1cnc2cccnn12 [ponatinib]
bone marrow involvement at MRD [2]: 8%
